In US20050084872A1 (priority 2003, published 2005):

Tests used:
PPARγ [1] = assay: PPARγ efficacy score from expression of the 22-probe efficacy-related gene population in cultured 3T3L1 adipocytes; type: cell-based, mouse; conditions: mean over 22 probes of logRatio divided by template logRatio, template = average of Rosiglitazone and {2-[2-(4-phenoxy-2-propylphenoxy)ethyl]-1H-indol-5-yl}acetic acid
Procedure: Twenty four hours after the cells were contacted with one or other of the foregoing agents the cells were harvested and RNA extracted therefrom.
Thus, an efficacy value a PPARγ agonist, or partial agonist, was calculated in the following manner. […] This mean value was the PPARγ efficacy value for the PPARγ agonist, or partial agonist.
A chi-square fitting was also used to calculate the efficacy value for each tested PPARγ agonist, or partial agonist. The chi-square fitting formula used was: [formula]
Where Ri, σRi stand for the logRatio and error for logRatio of the full template. Xi and σXi stand for the logRatio and error for logRatio of the testing compound.
A PPARα agonist was included as a control.

PPARγ [2] = assay: PPARγ classifier value from expression of the 303-probe classifier gene population in 3T3L1 adipocyte cell line; type: cell-based, mouse; conditions: Phase 3, high dosage (30×EC50), mean over 303 probes of logRatio divided by template logRatio, template = average of two full agonists (Group 1)
Procedure: The overall experiment was conducted in three phases (i.e., in three separate experiments conducted at three different times) as shown in Table 11 below. Three replicates were done for each of the tested compounds in each phase of the experiment.
The other PPARγ agonist, and partial agonist, compounds were used in testing the classifier population of genes. […] The PPARα agonist was included as a control.
The three replicate gene expression profiles within each phase of the experiment were first combined based on the error-weighted average. Expression profiles of two PPARγ full agonists, and four PPARγ partial agonists (in Phase 1) were chosen for classifier training, and were divided into the following two groups:
Group 1: two PPARγ full agonists (5-(4-{2-[methyl(pyridin-2-yl)amino]ethoxy} benzyl)-1,3-thiazolidine-2,4-dione and 5-{4-[2-hydroxy-2-(5-methyl-2-phenyl-1,3-oxazol-4-yl)ethoxy]benzyl}-1,3-thiazolidine-2,4-dione)
The Matlab function ANOVA1 (one-way analysis of variance) was used to calculate the pvalue (hereafter referred to as the ANOVA-pvalue) for the null hypothesis that the means of Group 1 and Group 2 are equal.

CCCc1cc(Oc2ccccc2)ccc1OCCc1cc2cc(CC(=O)O)ccc2[nH]1 [Agonist 1, {2-[2-(4-phenoxy-2-propylphenoxy)ethyl]-1H-indol-5-yl}acetic acid]
Efficacy Score (PPARγ [1]): 1.033
Classifier Value (PPARγ [2]): 0.881

CN(CCOc1ccc(CC2SC(=O)NC2=O)cc1)c1ccccn1 (stereo not shown) [Rosiglitazone, 5-(4-{2-[methyl(pyridin-2-yl)amino]ethoxy}benzyl)-1,3-thiazolidine-2,4-dione]
Efficacy Score (PPARγ [1]): 0.967
Classifier Value (PPARγ [2]): 0.850
